From US20260166045A1, “COMBINATION THERAPY COMPRISING GSPT1-DIRECTED MOLECULAR GLUE DEGRADERS AND PI3K/AKT/mTOR PATHWAY INHIBITORS” (Monte Rosa Therapeutics, Inc., priority 2022, published 2026)

Tests used:
[1] = test system: NCI-H526 cell line; experiment: CTG viability, 11x11 concentration matrix, Loewe synergy (SCLC); conditions: inhibitor combined with compound 1-1, 11x11 matrix, 72 hours
Method: (§4) Cells were cultured in the media recommended by the supplier.
(§5) On the day before compound addition, cells were seeded in 384-well-plates (white with clear flat bottom) at the densities indicated in Table 6 in 40 μL of growth medium. The next day, compounds were dispensed from 10 mM stocks using a HP D300 dispenser according to the concentration matrices described above. For each cell line, the compound concentration matrices were dispensed twice as side-by-side duplicates on one 384-well-plate. In addition, each plate contained 14 wells with only growth medium and 44 wells with cells treated with DMSO alone to calculate the average background and maximal signals, respectively. The final DMSO concentration was normalized to 0.2% across the plates. Plates were then incubated for 72 hours. CellTiter-Glo® Luminescent Cell Viability Assay (CTG, Promega G7570) reagent was prepared according to the manufacturer's instructions. Plates were equilibrated to room temperature for approximately 30 minutes, 25 μL CTG reagent was added to each well and plates were mixed on an orbital shaker for 10 minutes to allow for cell lysis. After further incubation for 20 minutes at room temperature, the clear bottoms of the plates were pasted with white back seal and luminescence was read on an EnVision plate reader (measurement time 0.1 seconds).

[2] = test system: NCI-H209 cell line; experiment: as above; conditions: inhibitor combined with compound 1-1, 11x11 matrix, 72 hours
Method: as §4, §5

[3] = test system: RAJI cell line; experiment: CTG viability, 11x11 concentration matrix, Loewe synergy (lymphoma); conditions: inhibitor combined with compound 1-1, 11x11 matrix, 72 hours
Method: as §4, §5

[4] = test system: WSU-DLCL2 cell line; experiment: as above; conditions: inhibitor combined with compound 1-1, 11x11 matrix, 72 hours
Method: as §4, §5

[5] = test system: MCF7 xenografts; experiment: MCF7 cell-derived xenograft (CDX) in vivo combination study; design: species or system BALB/c nude mice; conditions: compound 1-1 10 mg/kg; for Δ TV ratio to vehicle group (A/C, B/C, (AB)/C): day 28, Clarke method; for Δ TV (delta tumor volume): p.o. qd for 28 days, average of four tumors
Method: […] (0.36 mg) pellets (Innovative Research of America Cat. No.: SE-121, pellet size: 3.0 mm) were implanted 2-3 days before cell inoculation.
(§1) Compound 1-1 was formulated every day freshly as a solution in 5% DMSO/95% (30% w/v HPβCD in water). This formulation was also used as vehicle control. Everolimus was formulated as a suspension in 1% MC (400 cps), which was prepared every 3 days.
(§2) Body weights were measured at the same time.
An approximation of drug interactions was made using the method described by Clarke (Clarke et al. 1997. Breast Cancer Res Treat. 46(2-3):255-78). This was applied to […] and can estimate interactions from limited data. In short, for compound A, B, or the combination AB (with control group C), antagonism is predicted when (AB)/C>(A/C)×(B/C), an additive effect is predicted when (AB)/C=(A/C)×(B/C), and synergistic interaction is predicted to occur when (AB)/C<(A/C)×(B/C). Calculations in Table 10B indicate that the interaction of everolimus and compound 1-1 in the MCF7 CDX model is synergistic.
17β-Estradiol (0.36 mg) pellets (Innovative Research of America Cat. No.: SE-121, pellet size: 3.0 mm) were implanted 2-3 days before cell inoculation.
(§3) Compound 1-1 was formulated every day freshly as a solution in 5% DMSO/95% (30% w/v HPβCD in water). This formulation was also used as vehicle control. Alpelisib was formulated as a solution in 20% captisol+80% water (pH adjusted to 4), which was prepared every week.

[6] = test system: NCI-H1836 cell line; experiment: CTG viability, 11x11 concentration matrix, Loewe synergy (SCLC); conditions: inhibitor combined with compound 1-1, 11x11 matrix, 72 hours
Method: as §4, §5

[7] = test system: RPMI 8226 cell line; experiment: CTG viability, 11x11 concentration matrix, Loewe synergy (multiple myeloma); conditions: inhibitor combined with compound 1-1, 11x11 matrix, 72 hours
Method: as §4, §5

[8] = test system: SU-DHL-6 cell line; experiment: CTG viability, 11x11 concentration matrix, Loewe synergy (lymphoma); conditions: inhibitor combined with compound 1-1, 11x11 matrix, 72 hours
Method: as §4, §5

[9] = test system: MM.1S cell line; experiment: CTG viability, 11x11 concentration matrix, Loewe synergy (multiple myeloma); conditions: inhibitor combined with compound 1-1, 11x11 matrix, 72 hours
Method: as §4, §5

[10] = test system: DB cell line; experiment: CTG viability, 11x11 concentration matrix, Loewe synergy (lymphoma); conditions: inhibitor combined with compound 1-1, 11x11 matrix, 72 hours
Method: as §4, §5

[11] = test system: OPM-2 cell line; experiment: CTG viability, 11x11 concentration matrix, Loewe synergy (multiple myeloma); conditions: inhibitor combined with compound 1-1, 11x11 matrix, 72 hours
Method: as §4, §5

[12] = test system: NCI-H69 cell line; experiment: CTG viability, 11x11 concentration matrix, Loewe synergy (SCLC); conditions: inhibitor combined with compound 1-1, 11x11 matrix, 72 hours
Method: as §4, §5

[13] = test system: U266B1 cell line; experiment: CTG viability, 11x11 concentration matrix, Loewe synergy (multiple myeloma); conditions: inhibitor combined with compound 1-1, 11x11 matrix, 72 hours
Method: as §4, §5

[14] = test system: NCI-H1876 cell line; experiment: CTG viability, 11x11 concentration matrix, Loewe synergy (SCLC); conditions: inhibitor combined with compound 1-1, 11x11 matrix, 72 hours
Method: as §4, §5

[15] = test system: CAL51 xenografts; experiment: CAL51 cell-derived xenograft (CDX) in vivo combination study; design: species or system SCID Beige mice; conditions: compound 1-1 3 mg/kg; for antitumor effect vs vehicle (tumor volume): day 21, ANOVA with post hoc Tukey's test; for antitumor effect vs vehicle (tumor volume) / Δ TV ratio to vehicle group (A/C, B/C, (AB)/C): p.o. qd; for Δ TV ratio to vehicle group (A/C, B/C, (AB)/C): day 21, Clarke method; for Δ TV (delta tumor volume): p.o. qd for 21 days, average of four tumors
Method: as §1, §2, §3

[16] = test system: DOHH-2 cell line; experiment: CTG viability, 11x11 concentration matrix, Loewe synergy (lymphoma); conditions: inhibitor combined with compound 1-1, 11x11 matrix, 72 hours
Method: as §4, §5

[17] = test system: KMS-34 cell line; experiment: CTG viability, 11x11 concentration matrix, Loewe synergy (multiple myeloma); conditions: inhibitor combined with compound 1-1, 11x11 matrix, 72 hours
Method: as §4, §5

[18] = test system: PDX models LU5188, LU5247, LU5236, LU1508, LU5215, LU5137; experiment: Lung cancer patient-derived xenograft (PDX) in vivo combination study; design: species or system BALB/c nude or NOD/SCID mice; conditions: six lung cancer PDX models; everolimus 5 mg/kg qd p.o.
Method: • Models: The study was conducted at Crown Bioscience with the PDX models LU5188 (small cell lung neuroendocrine carcinoma), LU5247 (non-small cell lung adenocarcinoma), LU5236 (small cell lung neuroendocrine carcinoma), LU1508 (small cell lung neuroendocrine carcinoma), LU5215 (small cell lung neuroendocrine carcinoma), and LU5137 (large cell neuroendocrine carcinoma). • Animals: BALB/c nude (LU1508) or NOD/SCID (all other models) female mice, 5-7 weeks old, weighing approximately 22-25 g, were purchased from certified vendors.
Tumor Inoculation: Fresh tumor tissues was harvest from tumor bearing mice, cut into small pieces (approximately 2-3 mm in diameter) and was kept in RPMI1640 cell culture medium at 4° C.). Lidocaine cream was applied to the PDX fragment inoculation site 1 hour before the operation. In addition, hair was removed from NOD/SCID mice before fragment implantation. Each animal was disinfected at the inoculation site with alcohol swap, PDX tumor fragments were inserted subcutaneously at the upper right dorsal flank with a trocar. The trocar was withdrawn any air bubbles under the skin were extruded.
Both compounds were administered orally.
as §2

Row | SMILES | Mean Loewe synergy score, NCI-H526 [1] | Mean Loewe synergy score, NCI-H209 [2] | Mean Loewe synergy score, RAJI [3] | Mean Loewe synergy score, WSU-DLCL2 [4] | Mean Loewe synergy score, NCI-H1836 [6] | Mean Loewe synergy score, RPMI 8226 [7] | Mean Loewe synergy score, SUDHL6 [8] | Mean Loewe synergy score, MM.1S [9] | Mean Loewe synergy score, DB [10] | Mean Loewe synergy score, OPM-2 [11] | Mean Loewe synergy score, NCI-H69 [12] | Mean Loewe synergy score, U266B1 [13] | Mean Loewe synergy score, NCI-H1876 [14] | Mean Loewe synergy score, DOHH2 [16] | Mean Loewe synergy score, KMS-34 [17] | further results
1 | Cc1nc(NC(=O)N2CCC[C@H]2C(N)=O)sc1-c1ccnc(C(C)(C)C(F)(F)F)c1 [Alpelisib, (2S)-1-N-[4-methyl-5-[2-(1,1,1-trifluoro-2-methylpropan-2-yl)pyridin-4-yl]-1,3-thiazol-2-yl]pyrrolidine-1,2-dicarboxamide] | 3.7 | 1.49 | 2.05 | −2.69 | 1.69 | 0.9 | −6.28 | 3.44 | −2.27 | −2.51 | 5.05 | 0.13 | 1.64 | 1.59 | 7.85 | anti-tumor effect compared to vehicle ([5]; day 28, ANOVA with post hoc Tukey's test, alpelisib 50 mg/kg, p.o. qd): significant anti-tumor effect; Δ TV ratio to vehicle group (A/C, B/C, (AB)/C) ([5]; alpelisib 50 mg/kg, p.o. qd): 0.15; Δ TV (delta tumor volume) ([5]; day 28, alpelisib 50 mg/kg, combination 50 + 10 mg/kg): 91 mm^3; antitumor effect vs vehicle (tumor volume) ([15]; alpelisib 20 mg/kg): neither alpelisib nor compound 1-1 produced a statistically significant antitumor effect; Δ TV ratio to vehicle group (A/C, B/C, (AB)/C) ([15]; alpelisib 20 mg/kg): 0.76; Δ TV (delta tumor volume) ([15]; day 21, alpelisib 20 mg/kg, combination 20 + 3 mg/kg): 425 mm3
2 | CO[C@H]1C[C@@H]2CC[C@@H](C)[C@@](O)(O2)C(=O)C(=O)N2CCCC[C@H]2C(=O)O[C@H]([C@H](C)C[C@@H]2CC[C@@H](OCCO)[C@H](OC)C2)CC(=O)[C@H](C)/C=C(\C)[C@@H](O)[C@@H](OC)C(=O)[C@H](C)C[C@H](C)/C=C/C=C/C=C/1C [Everolimus, (1R,9S,12S,15R,16E,18R,19R,21R,23S,24E,26E,28E,30S,32S,35R)-1,18-dihydroxy-12-[(2R)-1-[(1S,3R,4R)-4-(2-hydroxyethoxy)-3-methoxycyclohexyl]propan-2-yl]-19,30-dimethoxy-15,17,21,23,29,35-hexamethyl-11,36-dioxa-4-azatricyclo[30.3.1.0^4,9]hexatriaconta-16,24,26,28-tetraene-2,3,10,14,20-pentone] | 6.49 | 6.14 | 14.66 | 8.29 | 1.58 | 20.75 | 12.05 | 6.7 | 5.81 | 5.3 | 9.46 | 4.16 | −0.29 | 6.48 | 16.19 | antitumor effect vs vehicle (tumor volume) ([5]; day 28, ANOVA with post hoc Tukey's test, everolimus 2 mg/kg, p.o. qd): statistically significant antitumor effects; Δ TV ratio to vehicle group (A/C, B/C, (AB)/C) ([5]; everolimus 2 mg/kg, p.o. qd): 0.26; Δ TV (delta tumor volume) ([5]; day 28, everolimus 2 mg/kg, combination 2 + 10 mg/kg): 164 mm3; body weight loss [18]: Body weight loss was caused by everolimus dosing; antitumor effect vs vehicle (tumor volume) ([15]; everolimus 2 mg/kg): did not significantly impede tumor growth; Δ TV ratio to vehicle group (A/C, B/C, (AB)/C) ([15]; everolimus 2 mg/kg): 0.87; Δ TV (delta tumor volume) ([15]; day 21, everolimus 2 mg/kg, combination 2 + 3 mg/kg): 491 mm3
